Source: patent EP0372582A2, “6-Aminoalkyl carbapenems” (Bristol-Myers Squibb Company, priority 1988, dated 1990)
Read-outs that look alike come from different tables or passages of the source. One block for each compound: values may come before it.

Key:
E. coli = assay: Protective dose (PD50) in infected animals; format: in vivo, mice; design: unit not given here; conditions: PO
Description: (§1) The PD₅₀ values are protective doses, or the dose of test compound which secures survival of 50% of the animals of a test group, usually mice, during a designated period of time after being infected with an inoculum of infectious organism which will result in death of all inoculated untreated animals during that test period.

[1] = Blood concentration parameters after administration to mice; format: in vivo; conditions: for U.R.: listed after the PO/50 lines, abbreviation not defined; for AUC / half-life / Cmax: mouse, mice; for half-life: blood half-life
Description: […] "Cmax" is the maximum concentration achieved, "t1/2" is the half-life or time for half of the absorbed material to disappear from the blood stream.

[2] = Chemical stability in aqueous solution (half-life); format: physicochemical
Experimental: Chemical stability in aqueous solution at pH 7.4 and pH 2.0 is reported as half-life (t1/2). These values are determined by interpolation from a graph of concentration of test substance remaining in solution after storage under selected conditions for various periods of time.

K. pneu. A9664 = assay: M.I.C., tube dilution method in Nutrient Broth; format: cell-based; conditions: unit assumed
Experimental: (§2) The following procedures illustrate the application of the process of this invention to the preparation of a variety of compounds of Formula V. In many instances, data illustrating the biological activity of the substances as antibiotics are presented. […] It is determined by interpolation from a graph of concentration versus number of cells following exposure of the organism to the test compound under growth conditions. Another parameter such as optical density which is proportional to the cell count may be used. In some instances MIC₉₀ values are also given. The latter refers to 90% growth inhibition.

Ent. clo. A9656 = assay: M.I.C., tube dilution method in Nutrient Broth; format: cell-based; conditions: unit assumed
Experimental: as §2

Str. faec. A20688 = assay: M.I.C., tube dilution method in Nutrient Broth; format: cell-based; conditions: unit assumed
Experimental: as §2

K. pneu. A20468 = assay: M.I.C., tube dilution method in Nutrient Broth; format: cell-based; conditions: unit assumed
Experimental: as §2

P. morg. A15153 = assay: M.I.C., tube dilution method in Nutrient Broth; format: cell-based; conditions: unit assumed
Experimental: as §2

Ps. aeru. CarbR = assay: M.I.C., tube dilution method in Nutrient Broth; format: cell-based; conditions: unit assumed
Experimental: as §2

P. vul. A21559 = assay: M.I.C., tube dilution method in Nutrient Broth; format: cell-based; conditions: unit assumed
Experimental: as §2

E. coli A20341 = assay: M.I.C., tube dilution method in Nutrient Broth; format: cell-based; conditions: unit assumed
Experimental: as §2

Ent. clo. A9659 = assay: M.I.C., tube dilution method in Nutrient Broth; format: cell-based; conditions: unit assumed
Experimental: as §2

Ps. aeru. A9843 = assay: M.I.C., tube dilution method in Nutrient Broth; format: cell-based; conditions: unit assumed
Experimental: as §2

Staph aur. Pen+ = assay: M.I.C., tube dilution method in Nutrient Broth; format: cell-based; conditions: unit assumed
Experimental: as §2

Str. pneu. A9585 = assay: M.I.C., tube dilution method in Nutrient Broth; format: cell-based; conditions: unit assumed
Experimental: as §2

Staph. aur. A9537 = assay: M.I.C., tube dilution method in Nutrient Broth; format: cell-based; conditions: unit assumed
Experimental: as §2

P. mir. A9900 = assay: M.I.C., tube dilution method in Nutrient Broth; format: cell-based; conditions: unit assumed
Experimental: as §2

E. coli A15119 = assay: M.I.C., tube dilution method in Nutrient Broth; format: cell-based; conditions: unit assumed
Experimental: as §2

Ser. mars. A20019 = assay: M.I.C., tube dilution method in Nutrient Broth; format: cell-based; conditions: unit assumed
Experimental: as §2

Staph aur. MR = assay: M.I.C., tube dilution method in Nutrient Broth; format: cell-based; conditions: unit assumed
Experimental: as §2

Str. pyo. A9604 = assay: M.I.C., tube dilution method in Nutrient Broth; format: cell-based; conditions: unit assumed
Experimental: as §2

P. rett. A22424 = assay: M.I.C., tube dilution method in Nutrient Broth; format: cell-based; conditions: unit assumed
Experimental: as §2

Staph. serum = assay: M.I.C., tube dilution method in Nutrient Broth; format: cell-based; conditions: unit assumed
Experimental: as §2

S. pneu = assay: Protective dose (PD50) in infected animals; format: in vivo, mice; design: unit not given beside the values; conditions: PO
Description: as §1

[3] = citric acid buffer, pH 2, 37°C, pH 2.0 citric acid buffer, by hplc, read-out: t1/2, pH 2
[4] = phosphate buffer, pH 7.4, 37°C, pH 7.4 phosphate buffer, by uv, read-out: t1/2, pH 7.4 (converted)

SMILES: C[C@@H](N)[C@H]1C(=O)N2C(C(=O)O)=C(SCc3cn(C)nn3)[C@H](C)[C@H]12 [Procedure 15]
PD50, E. coli (E. coli): 21.80
U.R. [1]: 11
AUC ([1]; in vivo, PO, 50 mg/kg): 25000 ng·h/mL
half-life ([1]; in vivo, PO, 50 mg/kg): 24 min
Cmax ([1]; in vivo, PO, 50 mg/kg, read-out: Cmax, PO/50): 29000 ng/mL
half-life [2, 3]: 144 min
half-life [2, 4]: 186 min
M.I.C. K. pneu. A9664 (K. pneu. A9664): 0.13 µg/mL
M.I.C. Ent. clo. A9656 (Ent. clo. A9656): 0.03 µg/mL
M.I.C. Str. faec. A20688 (Str. faec. A20688): 125 µg/mL
M.I.C. K. pneu. A20468 (K. pneu. A20468): 0.13 µg/mL
M.I.C. P. morg. A15153 (P. morg. A15153): 0.13 µg/mL
M.I.C. Ps. aeru. CarbR (Ps. aeru. CarbR): 16 µg/mL
M.I.C. P. vul. A21559 (P. vul. A21559): 0.06 µg/mL
M.I.C. E. coli A20341 (E. coli A20341): 0.03 µg/mL
M.I.C. Ent. clo. A9659 (Ent. clo. A9659): 0.13 µg/mL
M.I.C. Ps. aeru. A9843 (Ps. aeru. A9843): 2 µg/mL
M.I.C. Staph aur. Pen+ (Staph aur. Pen+): 4 µg/mL
M.I.C. Str. pneu. A9585 (Str. pneu. A9585): 1 µg/mL
M.I.C. Staph. aur. A9537 (Staph. aur. A9537): 4 µg/mL
M.I.C. P. mir. A9900 (P. mir. A9900): 0.03 µg/mL
M.I.C. E. coli A15119 (E. coli A15119): 0.03 µg/mL
M.I.C. Ser. mars. A20019 (Ser. mars. A20019): 0.13 µg/mL
M.I.C. Staph aur. MR (Staph aur. MR): 32 µg/mL
M.I.C. Str. pyo. A9604 (Str. pyo. A9604): 1 µg/mL
M.I.C. P. rett. A22424 (P. rett. A22424): 4 µg/mL
M.I.C. Staph. serum (Staph. serum): 4 µg/mL

U.R. [1]: 17
half-life ([1]; 20 mg/kg, IM/20): 15 min
AUC ([1]; blood, 20 mg/kg, IM/20): 11000 ng·h/mL
Cmax ([1]; blood, 20 mg/kg, IM/20, read-out: Cmax, IM/20): 24000 ng/mL
AUC ([1]; blood, PO, 50 mg/kg): 32000 ng·h/mL
Cmax ([1]; blood, PO, 50 mg/kg, read-out: Cmax, PO/50): 33000 ng/mL
half-life ([1]; PO, 50 mg/kg): 24 min
half-life [2, 3]: 120 min
half-life [2, 4]: 168 min
SMILES: C[C@@H](N)[C@H]1C(=O)N2C(C(=O)O)=C(SCc3ccccn3)[C@H](C)[C@H]12 [Procedure 18, (5S,6R) 6-(1′R-Aminoethyl)-4R-methyl-3-[(pyridin-2-yl)methylthio]-7-oxo-1-azabicyclo[3.2.0]hept-2-ene-2-carboxylic Acid]
PD50, E. coli (E. coli): 11.20
PD50, S. pneu (S. pneu): 16.5
